Columns and labels:
[1] = Metabolic stability in human hepatocytes assessed as half life measured per million cells incubated upto 60 mins by LC-MS/MS analysis; format: ADME, cell-based, Hepatocyte
[2] = Metabolic stability in human hepatocytes assessed as intrinsic clearance measured per million cells incubated upto 60 mins by LC-MS/MS analysis; format: ADME, cell-based, Hepatocyte; conditions: read-out: CLH
[3] = Ratio of drug concentration in human blood to plasma at 5 uM incubated for 30 mins by LC-MS/MS analysis; format: ADME, cell-free; conditions: whole blood
[4] = Plasma protein binding in human assessed as unbound fraction by rapid equilibrium dialysis analysis; format: ADME, cell-free

Compound	half-life [1] [h]	hepatocyte CLint [2] [µL/min/1e6 cells]	blood plasma ratio at 0.5 h, 5 µM [3]	fraction unbound [4]
O=C(O)/C=C/C(=O)O.[2H]C([2H])([2H])N(C([2H])([2H])[2H])C([2H])([2H])Cc1c[nH]c2ccccc12	3.45	9.3		
O=C(O)Cc1ccccc1Nc1c(Cl)cccc1Cl [DICLOFENAC]			0.63	
CCN(CC)CCCC(C)Nc1ccnc2cc(Cl)ccc12 (configuration not stated) [CHLOROQUINE]			4.93	
CNS(=O)(=O)Cc1ccc2[nH]cc(CCN(C)C)c2c1				0.68
O=C(O)/C=C/C(=O)O.[2H]C([2H])([2H])N(CCc1c[nH]c2ccccc12)C([2H])([2H])[2H]	1.95	15.2		
